In patent US10538555B2, “Macrocyclic inhibitors of the PD-1/PD-L1 and CD80(B7-1)/PD-L1 protein/protein interactions” (BRISTOL-MYERS SQUIBB COMPANY, priority 2014, dated 2020):
*1 amine or outer side, *2 acyl side, *3 side chain or, on linkers, in order; H or OH if unused. Where a SMILES comes first, the peptide text is derived from it. Bridges are numbered along the chain shown (N, C = ends). [ ]: non-standard residue; d: D form. Trp(1-CH2COOH) = N[C@@H](Cc1cn(CC(=O)O)c2ccccc12)C(=O)O; X8 = O=C([C@H](CC1CNc2ccccc21)N[*:1])[*:2]; Hyp = O=C(O)[C@@H]1C[C@@H](O)CN1; NMeNle = CCCC[C@H](NC)C(=O)O; NMeA = CN[C@@H](C)C(=O)O; Orn = NCCC[C@H](N)C(=O)O; Dab = NCC[C@H](N)C(=O)O; Dap = NC[C@H](N)C(=O)O

The compounds below were run against T1, Human PD-L1/PD-1 (Homo sapiens, UniProt Q9NZQ7) (assay: HTRF Human PD-L1/PD-1 binding assay (PD-1-Ig/PD-L1-His)). Conditions: PD-L1-His 10 nM, PD-1-Ig 20 nM; class symbol; read-out: HTRF Human PD-L1/PD-1 Binding Assay IC50 Range.
T1 construct: TVMV protease cleavage site (C); made in house; host or cells: HEK293T cells
T1 sequence (Q9NZQ7 with tags, fused parts or gaps): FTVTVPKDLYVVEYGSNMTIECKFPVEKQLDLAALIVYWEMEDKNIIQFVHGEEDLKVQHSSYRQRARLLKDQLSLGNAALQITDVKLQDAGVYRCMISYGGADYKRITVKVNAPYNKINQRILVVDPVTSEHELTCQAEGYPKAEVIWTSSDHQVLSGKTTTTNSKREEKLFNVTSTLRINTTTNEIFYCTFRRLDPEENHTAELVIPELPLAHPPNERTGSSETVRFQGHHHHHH
How it was run: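 Compound preincubated 15 min with PD-L1-His (10 nM final), then PD-1-Ig (20 nM final) added for 15 min in dPBS with 0.1% BSA and 0.05% Tween-20. Detection by Eu-cryptate anti-Ig (1 nM) and APC anti-His (20 nM) after 30 min; 665/620 nm HTRF ratio. Proteins expressed in HEK293T.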

Structure (SMILES) | IC50 [nM]
CCCC[C@H]1C(=O)N(C)[C@@H](CCCC)C(=O)N[C@@H](CC(C)C)C(=O)N[C@H](C(=O)NCC(N)=O)CSCC(=O)N[C@@H](Cc2ccc(O)cc2)C(=O)N(C)[C@@H](C)C(=O)N[C@@H](CC(N)=O)C(=O)N2CCC[C@H]2C(=O)NCC(=O)N[C@@H](CCC(N)=O)C(=O)N2C[C@H](O)C[C@H]2C(=O)N[C@@H](Cc2c[nH]c3ccccc23)C(=O)NCC(=O)N[C@@H](Cc2c[nH]c3ccccc23)C(=O)N1C [Example 5183] ({CH2CO}-Y[NMeA]NPGQ[Hyp]WGW[NMeNle][NMeNle]LCG-NH2; thioether N-14) | 10 to 99.9
CCCC[C@H]1C(=O)N(C)[C@@H](CCCC)C(=O)N[C@@H](CCC(=O)O)C(=O)N[C@H](C(=O)NCC(N)=O)CSCC(=O)N[C@@H](Cc2ccc(O)cc2)C(=O)N(C)[C@@H](C)C(=O)N[C@@H](CC(=O)O)C(=O)N2CCC[C@H]2C(=O)N[C@@H](CO)C(=O)N[C@@H](CC(C)C)C(=O)N2C[C@H](O)C[C@H]2C(=O)N[C@@H](Cc2c[nH]c3ccccc23)C(=O)N[C@@H](CO)C(=O)N[C@@H](CC2CNc3ccccc32)C(=O)N1C (stereo partly drawn) [Example 5184] ({CH2CO}-Y[NMeA]DPSL[Hyp]WS[X8][NMeNle][NMeNle]ECG-NH2; thioether N-14) | 10 to 99.9
CCCC[C@H]1C(=O)N(C)[C@@H](CCCC)C(=O)N[C@@H](CCC(=O)O)C(=O)N[C@H](C(=O)NCC(N)=O)CSCC(=O)N[C@@H](Cc2ccc(O)cc2)C(=O)N(C)[C@@H](C)C(=O)N[C@@H](CC(N)=O)C(=O)N2CCC[C@H]2C(=O)N[C@@H](CN)C(=O)N[C@@H](CCC(N)=O)C(=O)N2C[C@H](O)C[C@H]2C(=O)N[C@@H](Cc2c[nH]c3ccccc23)C(=O)N[C@@H](CCC(=O)O)C(=O)N[C@@H](Cc2c[nH]c3ccccc23)C(=O)N1C [Example 5191] ({CH2CO}-Y[NMeA]NP[Dap]Q[Hyp]WEW[NMeNle][NMeNle]ECG-NH2; thioether N-14) | 1 to 9.9
CCCC[C@H]1C(=O)N(C)[C@@H](CCCC)C(=O)N[C@@H](CN)C(=O)N[C@H](C(=O)NCC(N)=O)CSCC(=O)N[C@@H](Cc2ccc(O)cc2)C(=O)N(C)[C@@H](C)C(=O)N[C@@H](CC(=O)O)C(=O)N2CCC[C@H]2C(=O)N[C@@H](CN)C(=O)N[C@@H](CCC(N)=O)C(=O)N2C[C@H](O)C[C@H]2C(=O)N[C@@H](Cc2c[nH]c3ccccc23)C(=O)N[C@@H](CCN)C(=O)N[C@@H](Cc2cn(CC(=O)O)c3ccccc23)C(=O)N1C [Example 5192] ({CH2CO}-Y[NMeA]DP[Dap]Q[Hyp]W[Dab][Trp(1-CH2COOH)][NMeNle][NMeNle][Dap]CG-NH2; thioether N-14) | 1 to 9.9
CCCC[C@H]1C(=O)N(C)[C@@H](CCCC)C(=O)NCC(=O)N[C@H](C(=O)NCC(N)=O)CSCC(=O)N[C@@H](Cc2ccc(O)cc2)C(=O)N(C)[C@@H](C)C(=O)N[C@@H](CC(N)=O)C(=O)N2CCC[C@H]2C(=O)N[C@@H](Cc2c[nH]cn2)C(=O)N[C@@H](CCC(N)=O)C(=O)N2C[C@H](O)C[C@H]2C(=O)N[C@@H](Cc2c[nH]c3ccccc23)C(=O)NCC(=O)N[C@@H](Cc2c[nH]c3ccccc23)C(=O)N1C [Example 5198] ({CH2CO}-Y[NMeA]NPHQ[Hyp]WGW[NMeNle][NMeNle]GCG-NH2; thioether N-14) | 10 to 99.9
CCCC[C@H]1C(=O)N(C)[C@@H](CCCC)C(=O)N[C@@H](CC(C)C)C(=O)N[C@H](C(=O)O)CSCC(=O)N[C@@H](Cc2ccc(O)cc2)C(=O)N(C)[C@@H](C)C(=O)N[C@@H](CC(N)=O)C(=O)N2CCC[C@H]2C(=O)N[C@@H](CN)C(=O)N[C@@H](CC(C)C)C(=O)N2C[C@H](O)C[C@H]2C(=O)N[C@@H](Cc2c[nH]c3ccccc23)C(=O)N[C@@H](CCCN)C(=O)N[C@@H](Cc2cn(CC(=O)O)c3ccccc23)C(=O)N1C [Example 5199] ({CH2CO}-Y[NMeA]NP[Dap]L[Hyp]W[Orn][Trp(1-CH2COOH)][NMeNle][NMeNle]LC-OH; thioether N-14) | 1 to 9.9

Second part, the compound after the results:

IC50 [nM] | Structure (SMILES)
10 to 99.9 | CCCC[C@H]1C(=O)N(C)[C@@H](CCCC)C(=O)N[C@@H](CN)C(=O)N[C@H](C(=O)NCC(N)=O)CSCC(=O)N[C@@H](Cc2ccc(O)cc2)C(=O)N(C)[C@@H](C)C(=O)N[C@@H](CC(N)=O)C(=O)N2CCC[C@H]2C(=O)N[C@@H](Cc2c[nH]cn2)C(=O)N[C@@H](CC(C)C)C(=O)N2CCC[C@H]2C(=O)N[C@@H](Cc2c[nH]c3ccccc23)C(=O)N[C@@H](CO)C(=O)N[C@@H](Cc2c[nH]c3ccccc23)C(=O)N1C [Example 5182]
1 to 9.9 | CCCC[C@H]1C(=O)N(C)[C@@H](CCCC)C(=O)N[C@@H](CCC(=O)O)C(=O)N[C@H](C(=O)NCC(N)=O)CSCC(=O)N[C@@H](Cc2ccc(O)cc2)C(=O)N(C)[C@@H](C)C(=O)N[C@@H](CC(N)=O)C(=O)N2CCC[C@H]2C(=O)N[C@@H](Cc2cnc[nH]2)C(=O)N[C@@H](CCC(N)=O)C(=O)N2C[C@H](O)C[C@H]2C(=O)N[C@@H](Cc2c[nH]c3ccccc23)C(=O)N[C@@H](CCC(=O)O)C(=O)N[C@@H](Cc2c[nH]c3ccccc23)C(=O)N1C [Example 5186] ({CH2CO}-Y[NMeA]NPHQ[Hyp]WEW[NMeNle][NMeNle]ECG-NH2; thioether N-14)
1 to 9.9 | CCCC[C@H]1C(=O)N(C)[C@@H](CCCC)C(=O)N[C@@H](CCC(=O)O)C(=O)N[C@H](C(=O)NCC(N)=O)CSCC(=O)N[C@@H](Cc2ccc(O)cc2)C(=O)N(C)[C@@H](C)C(=O)N[C@@H](CC(N)=O)C(=O)N2CCC[C@H]2C(=O)N[C@@H](Cc2c[nH]cn2)C(=O)N[C@@H](CCC(=O)O)C(=O)N2C[C@H](O)C[C@H]2C(=O)N[C@@H](Cc2c[nH]c3ccccc23)C(=O)N[C@@H](CCN)C(=O)N[C@@H](Cc2c[nH]c3ccccc23)C(=O)N1C [Example 5190] ({CH2CO}-Y[NMeA]NPHE[Hyp]W[Dab]W[NMeNle][NMeNle]ECG-NH2; thioether N-14)
1 to 9.9 | CCCC[C@H]1C(=O)N(C)[C@@H](CCCC)C(=O)N[C@@H](CCC(=O)O)C(=O)N[C@H](C(=O)NCC(N)=O)CSCC(=O)N[C@@H](Cc2ccc(O)cc2)C(=O)N(C)[C@@H](C)C(=O)N[C@@H](CC(N)=O)C(=O)N2CCC[C@H]2C(=O)N[C@@H](CO)C(=O)N[C@@H](CCC(=O)O)C(=O)N2C[C@H](O)C[C@H]2C(=O)N[C@@H](Cc2c[nH]c3ccccc23)C(=O)N[C@@H](CCC(=O)O)C(=O)N[C@@H](Cc2c[nH]c3ccccc23)C(=O)N1C [Example 5196] ({CH2CO}-Y[NMeA]NPSE[Hyp]WEW[NMeNle][NMeNle]ECG-NH2; thioether N-14)
1 to 9.9 | CCCC[C@H]1C(=O)N(C)[C@@H](CCCC)C(=O)N[C@@H](CCC(=O)O)C(=O)N[C@H](C(=O)NCC(N)=O)CSCC(=O)N[C@@H](Cc2ccc(O)cc2)C(=O)N(C)[C@@H](C)C(=O)N[C@@H](CC(=O)O)C(=O)N2CCC[C@H]2C(=O)N[C@@H](CN)C(=O)N[C@@H](CCC(N)=O)C(=O)N2C[C@H](O)C[C@H]2C(=O)N[C@@H](Cc2c[nH]c3ccccc23)C(=O)N[C@@H](CCN)C(=O)N[C@@H](Cc2c[nH]c3ccccc23)C(=O)N1C [Example 5200] ({CH2CO}-Y[NMeA]DP[Dap]Q[Hyp]W[Dab]W[NMeNle][NMeNle]ECG-NH2; thioether N-14)
1 to 9.9 | CCCC[C@H]1C(=O)N(C)[C@@H](CCCC)C(=O)N[C@@H](CC(C)C)C(=O)N[C@H](C(=O)NCC(N)=O)CSCC(=O)N[C@@H](Cc2ccc(O)cc2)C(=O)N(C)[C@@H](C)C(=O)N[C@@H](CCN)C(=O)N2CCC[C@H]2C(=O)N[C@@H](Cc2c[nH]cn2)C(=O)N[C@@H](CCCCN)C(=O)N2C[C@H](O)C[C@H]2C(=O)N[C@@H](Cc2c[nH]c3ccccc23)C(=O)N[C@@H](CCCCN)C(=O)N[C@@H](Cc2c[nH]c3ccccc23)C(=O)N1C [Example 5201] ({CH2CO}-Y[NMeA][Dab]PHK[Hyp]WKW[NMeNle][NMeNle]LCG-NH2; thioether N-14)
1 to 9.9 | CCCC[C@H]1C(=O)N(C)[C@@H](CCCC)C(=O)N[C@@H](CC(C)C)C(=O)N[C@H](C(=O)NCC(N)=O)CSCC(=O)N[C@@H](Cc2ccc(O)cc2)C(=O)N(C)[C@@H](C)C(=O)N[C@@H](CC(=O)O)C(=O)N2CCC[C@H]2C(=O)N[C@@H](Cc2c[nH]cn2)C(=O)N[C@@H](CCCCNC(C)=O)C(=O)N2C[C@H](O)C[C@H]2C(=O)N[C@@H](Cc2c[nH]c3ccccc23)C(=O)N[C@@H](CCCCN)C(=O)N[C@@H](Cc2c[nH]c3ccccc23)C(=O)N1C [Example 5202] ({CH2CO}-Y[NMeA]DPHK(Ac)[Hyp]WKW[NMeNle][NMeNle]LCG-NH2; thioether N-14)
1 to 9.9 | CCCC[C@H]1C(=O)N(C)[C@@H](CCCC)C(=O)N[C@@H](CCC(=O)O)C(=O)N[C@H](C(=O)NCC(N)=O)CSCC(=O)N[C@@H](Cc2ccc(O)cc2)C(=O)N(C)[C@@H](C)C(=O)N[C@@H](CC(N)=O)C(=O)N2CCC[C@H]2C(=O)N[C@@H](CO)C(=O)N[C@@H](CCC(N)=O)C(=O)N2C[C@H](O)C[C@H]2C(=O)N[C@@H](Cc2c[nH]c3ccccc23)C(=O)N[C@@H](CO)C(=O)N[C@@H](Cc2c[nH]c3ccccc23)C(=O)N1C [Example 5204] ({CH2CO}-Y[NMeA]NPSQ[Hyp]WSW[NMeNle][NMeNle]ECG-NH2; thioether N-14)
1 to 9.9 | CCCC[C@H]1C(=O)N(C)[C@@H](CCCC)C(=O)N[C@@H](CCC(=O)O)C(=O)N[C@H](C(=O)NCC(N)=O)CSCC(=O)N[C@@H](Cc2ccc(O)cc2)C(=O)N(C)[C@@H](C)C(=O)N[C@@H](CC(N)=O)C(=O)N2CCC[C@H]2C(=O)N[C@@H](CO)C(=O)N[C@@H](CCC(=O)O)C(=O)N2C[C@H](O)C[C@H]2C(=O)N[C@@H](Cc2c[nH]c3ccccc23)C(=O)N[C@@H](CO)C(=O)N[C@@H](Cc2c[nH]c3ccccc23)C(=O)N1C [Example 5205] ({CH2CO}-Y[NMeA]NPSE[Hyp]WSW[NMeNle][NMeNle]ECG-NH2; thioether N-14)
